Consider 28 compounds from patent publication US20100311714A1, “1H-IMIDAZO[4,5-c]QUINOLINONE COMPOUNDS” (priority 2009, published 2010).

pIC50: −log10 of the molar value. Where two headings read alike, the source gives them in different places.

The subject of assay [1] is S6 Ribosomal Protein phosphorylation Ser235/236 in TSC1 null mouse embryo fibroblast (MEF) cells. Kind of assay: Reverse protein array, S6 Ribosomal Protein phosphorylation in TSC1 null MEF cells. The format is cell-based. As to conditions: 1 h, TSC1-/- MEFs, 60 minutes. Summed up: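 Phospho-S6 (Ser235/236) was quantified by reverse protein array of cell lysates with a phospho-specific primary antibody. […]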

In the next assay the target is T1, mTOR (Homo sapiens, UniProt P42345).
T1 construct: purchased Invitrogen Corporation (Carlsbad/Calif., USA) PV4753
T1 sequence (P42345 1360-2549 limits assumed): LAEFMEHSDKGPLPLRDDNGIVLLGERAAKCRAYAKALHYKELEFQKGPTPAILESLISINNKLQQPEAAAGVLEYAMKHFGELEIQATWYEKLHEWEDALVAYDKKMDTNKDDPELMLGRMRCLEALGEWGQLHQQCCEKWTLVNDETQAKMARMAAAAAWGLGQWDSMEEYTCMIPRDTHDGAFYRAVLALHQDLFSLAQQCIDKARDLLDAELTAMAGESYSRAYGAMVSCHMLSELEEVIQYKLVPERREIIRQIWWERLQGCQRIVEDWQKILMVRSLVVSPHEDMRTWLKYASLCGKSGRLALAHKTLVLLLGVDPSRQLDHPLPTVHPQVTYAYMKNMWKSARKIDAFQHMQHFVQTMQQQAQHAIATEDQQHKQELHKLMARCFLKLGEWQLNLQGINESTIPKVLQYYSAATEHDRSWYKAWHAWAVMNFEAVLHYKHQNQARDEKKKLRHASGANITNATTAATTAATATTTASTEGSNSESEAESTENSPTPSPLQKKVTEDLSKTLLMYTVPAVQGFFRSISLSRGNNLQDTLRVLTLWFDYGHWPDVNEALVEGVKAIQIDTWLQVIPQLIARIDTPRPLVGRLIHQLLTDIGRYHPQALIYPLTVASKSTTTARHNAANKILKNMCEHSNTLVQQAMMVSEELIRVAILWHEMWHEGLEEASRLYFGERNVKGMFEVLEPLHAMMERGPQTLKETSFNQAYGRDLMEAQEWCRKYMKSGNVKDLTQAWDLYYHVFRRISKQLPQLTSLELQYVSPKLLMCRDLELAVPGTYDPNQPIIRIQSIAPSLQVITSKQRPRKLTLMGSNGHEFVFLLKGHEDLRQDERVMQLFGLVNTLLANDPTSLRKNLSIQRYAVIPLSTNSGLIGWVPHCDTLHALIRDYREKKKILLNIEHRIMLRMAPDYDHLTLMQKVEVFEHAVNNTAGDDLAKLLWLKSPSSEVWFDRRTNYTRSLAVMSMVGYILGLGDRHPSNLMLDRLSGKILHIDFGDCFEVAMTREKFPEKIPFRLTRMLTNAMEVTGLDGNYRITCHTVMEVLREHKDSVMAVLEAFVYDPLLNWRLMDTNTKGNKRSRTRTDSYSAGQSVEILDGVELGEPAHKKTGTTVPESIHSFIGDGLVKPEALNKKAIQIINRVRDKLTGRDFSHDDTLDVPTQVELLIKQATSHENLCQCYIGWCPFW
Kind of assay: Biochemical assay for m-TOR by TR-FRET. Summed up:
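mTOR (0.5 nM) phosphorylates GFP-4EBP1 (400 nM) with 8 μM ATP at rt in 50 mM HEPES pH 7.5, 10 mM MnCl2, 50 mM NaCl, 1 mM EGTA, 1 mM DTT; compounds 0.003–10 μM final. EDTA stop with Tb-anti-p4EBP1[pT46] antibody (0.5 nM); TR-FRET read after 15 min against no-enzyme and vehicle controls.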
In general terms: TR-FRET usually uses a lanthanide donor and a delayed reading to cut background.

As to `COc1ccc(-c2ccc3ncc4c(c3c2)n(-c2cccnc2OC)c(=O)n4C)cn1` [Example 1.1, 1-(2-Methoxy-pyridin-3-yl)-8-(6-methoxy-pyridin-3-yl)-3-methyl-1,3-dihydro-imidazo[4,5-c]quinolin-2-one], the values for the pIC50 (in assay [1] (read-out: p-S6); at mTOR (read-out: mTOR/IC50)) were 7.61 and 7.44, respectively. Turning to `COc1ncccc1-n1c(=O)n(C)c2cnc3ccc(-c4cnc(N)c(C(F)(F)F)c4)cc3c21` [Example 1.3, 8-(6-Amino-5-trifluoromethyl-pyridin-3-yl)-1-(2-methoxy-pyridin-3-yl)-3-methyl-1,3-dihydro-imidazo[4,5-c]quinolin-2-one], the pIC50 is 8.82 in assay [1] (read-out: p-S6) and 8.05 at mTOR (read-out: mTOR/IC50). The like results for `CNc1ccc(-c2ccc3ncc4c(c3c2)n(-c2cccnc2OC)c(=O)n4C)cn1` [Example 1.4, 1-(2-Methoxy-pyridin-3-yl)-3-methyl-8-(6-methylamino-pyridin-3-yl)-1,3-dihydro-imidazo[4,5-c]quinolin-2-one] were, in that order, 8.08 and 7.60.

Consider `CCOc1ccc(-c2ccc3ncc4c(c3c2)n(-c2cccnc2OC)c(=O)n4C)cn1` [Example 1.5, 8-(6-Ethoxy-pyridin-3-yl)-1-(2-methoxy-pyridin-3-yl)-3-methyl-1,3-dihydro-imidazo[4,5-c]quinolin-2-one], for which the pIC50 in assay [1] (read-out: p-S6) was 7.31; on mTOR (read-out: mTOR/IC50), 6.97.

Consider `COc1ncccc1-n1c(=O)n(C)c2cnc3ccc(-c4cnc5c(ccn5C)c4)cc3c21` [Example 1.7, 1-(2-Methoxy-pyridin-3-yl)-3-methyl-8-(1-methyl-1H-pyrrolo[2,3-b]pyridin-5-yl)-1,3-dihydro-imidazo[4,5-c]quinolin-2-one], for which the pIC50 in assay [1] (read-out: p-S6) is 7.92; on mTOR (read-out: mTOR/IC50), 7.80. On to `COc1ncccc1-n1c(=O)n(C)c2cnc3ccc(-c4ccc(F)nc4)cc3c21` [Example 1.8, 8-(6-Fluoro-pyridin-3-yl)-1-(2-methoxy-pyridin-3-yl)-3-methyl-1,3-dihydro-imidazo[4,5-c]quinolin-2-one], for which the pIC50 on mTOR (read-out: mTOR/IC50) was 7.06. On to `COc1ncccc1-n1c(=O)n(C)c2cnc3ccc(-c4cnc(N(C)C)nc4)cc3c21` [Example 1.9, 8-(2-Dimethylamino-pyrimidin-5-yl)-1-(2-methoxy-pyridin-3-yl)-3-methyl-1,3-dihydro-imidazo[4,5-c]quinolin-2-one], for which the figures for the pIC50 (in assay [1] (read-out: p-S6); on mTOR (read-out: mTOR/IC50)) were 7.48 and 7.85, respectively. As for `CCOc1ccc(-c2ccc3ncc4c(c3c2)n(-c2cccnc2C)c(=O)n4C)cn1` [Example 2.1, 8-(6-Ethoxy-pyridin-3-yl)-3-methyl-1-(2-methyl-pyridin-3-yl)-1,3-dihydro-imidazo[4,5-c]quinolin-2-one], the results for the pIC50 (in assay [1] (read-out: p-S6); at mTOR (read-out: mTOR/IC50)) were 7.72 and 7.38, respectively. With `CNc1ncc(-c2ccc3ncc4c(c3c2)n(-c2cccnc2C)c(=O)n4C)cn1` [Example 2.2, 3-Methyl-8-(2-methylamino-pyrimidin-5-yl)-1-(2-methyl-pyridin-3-yl)-1,3-dihydro-imidazo[4,5-c]quinolin-2-one], the figures for the pIC50 (in assay [1] (read-out: p-S6); on mTOR (read-out: mTOR/IC50)) were 8.27 and 8.10, respectively. For `Cc1ncccc1-n1c(=O)n(C)c2cnc3ccc(-c4cnc5c(ccn5C)c4)cc3c21` [Example 2.14, 3-Methyl-1-(2-methyl-pyridin-3-yl)-8-(1-methyl-1H-pyrrolo[2,3-b]pyridin-5-yl)-1,3-dihydro-imidazo[4,5-c]quinolin-2-one], in that order: 8.06 and 7.62. On to `CCOc1cc(-c2ccc3ncc4c(c3c2)n(-c2cccnc2C)c(=O)n4C)cnc1C` [Example 2.22, 8-(5-Ethoxy-6-methyl-pyridin-3-yl)-3-methyl-1-(2-methyl-pyridin-3-yl)-1,3-dihydro-imidazo[4,5-c]quinolin-2-one], for which the pIC50 is 7.92 in assay [1] (read-out: p-S6 IC50) and 7.10 on mTOR (read-out: EPK_mTOR/IC50).

For the compound `Cc1cccnc1-n1c(=O)n(C)c2cnc3ccc(-c4cnc5ccccc5c4)cc3c21` [Example 3.8, 3-Methyl-1-(3-methyl-pyridin-2-yl)-8-quinolin-3-yl-1,3-dihydro-imidazo[4,5-c]quinolin-2-one], the pIC50 on mTOR (read-out: mTOR/IC50) is 6.26.

With `COc1ccc(-c2ccc3ncc4c(c3c2)n(-c2cccnc2)c(=O)n4C)cc1OC` [Example 5.2, 8-(3,4-Dimethoxy-phenyl)-3-methyl-1-pyridin-3-yl-1,3-dihydro-imidazo[4,5-c]quinolin-2-one], the pIC50 on mTOR (read-out: mTOR/IC50) was 6.63.

Turning to `COc1ccc(-c2ccc3ncc4c(c3c2)n(-c2cccnc2)c(=O)n4C)cn1` [Example 5.4, 8-(6-Methoxy-pyridin-3-yl)-3-methyl-1-pyridin-3-yl-1,3-dihydro-imidazo[4,5-c]quinolin-2-one], the pIC50 at mTOR (read-out: mTOR/IC50) was 6.94.

For the compound `CCNc1cc(-c2ccc3ncc4c(c3c2)n(-c2ccc(F)nc2C)c(=O)n4C)cnc1CO` [Example 7.9, 8-(5-Ethylamino-6-hydroxymethyl-pyridin-3-yl)-1-(6-fluoro-2-methyl-pyridin-3-yl)-3-methyl-1,3-dihydro-imidazo[4,5-c]quinolin-2-one], the pIC50 was 8.30 in assay [1] (read-out: p-S6 IC50) and over 8.52 at mTOR (read-out: EPK_mTOR/IC50). The like results for `CNc1cc(-c2ccc3ncc4c(c3c2)n(-c2ccc(F)nc2C)c(=O)n4C)cnc1CO` [Example 7.11, 1-(6-Fluoro-2-methyl-pyridin-3-yl)-8-(6-hydroxymethyl-5-methylamino-pyridin-3-yl)-3-methyl-1,3-dihydro-imidazo[4,5-c]quinolin-2-one] were, in that order, 8.15 and 7.96. With `CNc1ncc(-c2ccc3ncc4c(c3c2)n(-c2ccc(F)nc2C)c(=O)n4C)cc1F` [Example 7.12, 8-(5-Fluoro-6-methylamino-pyridin-3-yl)-1-(6-fluoro-2-methyl-pyridin-3-yl)-3-methyl-1,3-dihydro-imidazo[4,5-c]quinolin-2-one], at mTOR (read-out: EPK_mTOR/IC50), the pIC50 was 7.18.

On to `CNc1ncc(-c2ccc3ncc4c(c3c2)n(-c2ccc(F)nc2C)c(=O)n4C)cc1C(F)(F)F` [Example 7.13, 1-(6-Fluoro-2-methyl-pyridin-3-yl)-3-methyl-8-(6-methylamino-5-trifluoromethyl-pyridin-3-yl)-1,3-dihydro-imidazo[4,5-c]quinolin-2-one], for which the pIC50 on mTOR (read-out: EPK_mTOR/IC50) was 7.17.

In the case of `CNC(=O)c1cc(-c2ccc3ncc4c(c3c2)n(-c2ccc(F)nc2C)c(=O)n4C)cnc1N` [Example 7.14, 2-Amino-5-[1-(6-fluoro-2-methyl-pyridin-3-yl)-3-methyl-2-oxo-2,3-dihydro-1H-imidazo[4,5-c]quinolin-8-yl]-N-methyl-nicotinamide], the pIC50 on mTOR (read-out: EPK_mTOR/IC50) is 6.60. `COc1ccc(-n2c(=O)n(C)c3cnc4ccc(-c5cnc(N)c(C(F)(F)F)c5)cc4c32)c(OC)n1` [Example 8.1, 8-(6-Amino-5-trifluoromethyl-pyridin-3-yl)-1-(2,6-dimethoxy-pyridin-3-yl)-3-methyl-1,3-dihydro-imidazo[4,5-c]quinolin-2-one]: in assay [1] (read-out: p-S6), the pIC50 was 8.97. On to `COc1ccc(-n2c(=O)n(C)c3cnc4ccc(-c5cnc(CO)c(OC)c5)cc4c32)c(C)n1` [Example 11.8, 8-(6-Hydroxymethyl-5-methoxy-pyridin-3-yl)-1-(6-methoxy-2-methyl-pyridin-3-yl)-3-methyl-1,3-dihydro-imidazo[4,5-c]quinolin-2-one], for which the pIC50 at mTOR (read-out: EPK_mTOR/IC50) was 7.34. `COCCN(C)c1ccc(-n2c(=O)n(C)c3cnc4ccc(-c5cnc(CO)c(OC)c5)cc4c32)c(C)n1` [Example 15.9, 8-(6-Hydroxymethyl-5-methoxy-pyridin-3-yl)-1-{6-[(2-methoxy-ethyl)-methyl-amino]-2-methyl-pyridin-3-yl}-3-methyl-1,3-dihydro-imidazo[4,5-c]quinolin-2-one]: on mTOR (read-out: EPK_mTOR/IC50), the pIC50 was 6.92. For `CNc1ncc(-c2ccc3ncc4c(c3c2)n(-c2ccc(N(C)C)nc2C)c(=O)n4C)cn1` [Example 19.1, 1-(6-Dimethylamino-2-methyl-pyridin-3-yl)-3-methyl-8-(2-methylamino-pyrimidin-5-yl)-1,3-dihydro-imidazo[4,5-c]quinolin-2-one], the pIC50 at mTOR (read-out: EPK_mTOR/IC50) is 8.52.

For `CCOc1ccc(-c2ccc3ncc4c(c3c2)n(-c2ccc(N(C)C)nc2C)c(=O)n4C)cn1` [Example 19.3, 1-(6-Dimethylamino-2-methyl-pyridin-3-yl)-8-(6-ethoxy-pyridin-3-yl)-3-methyl-1,3-dihydro-imidazo[4,5-c]quinolin-2-one], the pIC50 in assay [1] (read-out: p-S6 IC50) is 8.70.

With `COc1cc(-c2ccc3ncc4c(c3c2)n(-c2ccc(N(C)C)nc2C)c(=O)n4C)cnc1CO` [Example 19.4, 1-(6-Dimethylamino-2-methyl-pyridin-3-yl)-8-(6-hydroxymethyl-5-methoxy-pyridin-3-yl)-3-methyl-1,3-dihydro-imidazo[4,5-c]quinolin-2-one], the pIC50 at mTOR (read-out: EPK_mTOR/IC50) was 7.38. `Cc1nc(N(C)C)ccc1-n1c(=O)n(C)c2cnc3ccc(-c4cncc(N)c4)cc3c21` [Example 19.5, 8-(5-Amino-pyridin-3-yl)-1-(6-dimethylamino-2-methyl-pyridin-3-yl)-3-methyl-1,3-dihydro-imidazo[4,5-c]quinolin-2-one]: the pIC50 at mTOR (read-out: EPK_mTOR/IC50) is 8.05.

Take `COCC(=O)Nc1ccc(-n2c(=O)n(C)c3cnc4ccc(-c5cncc(OC(C)C)c5)cc4c32)c(C)n1` [Example 20.5, N-{5-[8-(5-Isopropoxy-pyridin-3-yl)-3-methyl-2-oxo-2,3-dihydro-imidazo[4,5-c]quinolin-1-yl]-6-methyl-pyridin-2-yl}-2-methoxy-acetamide]: at mTOR (read-out: EPK_mTOR/IC50), the pIC50 was 6.05. Same read-out and setting: the figure for `Cc1nc(C(C)(C)O)ccc1-n1c(=O)n(C)c2cnc3ccc(-c4cncc(OC(C)C)c4)cc3c21` [Example 31.9, 1-[6-(1-Hydroxy-1-methyl-ethyl)-2-methyl-pyridin-3-yl]-8-(5-isopropoxy-pyridin-3-yl)-3-methyl-1,3-dihydro-imidazo[4,5-c]quinolin-2-one] is 6.86.
